Results on four compounds are retold here after paper PMC9785678, “Candidalysin Is the Hemolytic Factor of Candida albicans” (Toxins, 2022).

One data set concerns red blood cells (RBCs). The data set can be described thus: Hemolysis assay with synthetic peptides on purified RBCs. The data set is classed as cell-based, human. To be noted: 37 °C; for hemolysis by the P7 derivative alone: 2 µM. Here is the method:
RBCs were purified from whole blood of healthy volunteers. Blood was collected in tubes containing EDTA-K3 as an anticoagulant (approximately 9 mL/tube). To separate RBCs from white blood cells (WBCs) and plasma, three washes were performed by centrifugation (2000× g for 10 min) and subsequent re-suspension to reach 9 mL. First, the RBCs were resuspended in Dulbecco′s Phosphate Buffered Saline (DPBS) + 2% heat inactivated fetal bovine serum, then in pure DPBS, and eventually in RPMI (for assays with live candida) or again DPBS (for assays with peptides). After each centrifugation step, care was taken to remove as many WBCs as possible from the central buffy layer. A hemocytometer (Auto Hematology Analyzer BC-5300 Vet (Mindray, Shenzhen, China)) was used to verify that the WBC count was negligible ([…]) and to determine the RBC concentration. This was then adjusted to 5 × 10^8 cells/mL, in the respective media or buffer.
Peptides were purchased from two different suppliers, namely Proteogenix (Strasbourg, France) and Peptide Protein Research Ltd. (Southampton, UK). Stock solutions were prepared in pure water at a concentration of 1.4 mM, then aliquoted and stored at −20 °C. […] Working solutions were then prepared in the relative buffer at the final concentration indicated for each assay.
To assess the hemolytic potential of C. albicans strains, RBCs and fungal cells were mixed in a 1:1 ratio (5 × 10^7 each, in a final volume of 600 µL) in a 2 mL plastic test tube (screw cap). Every condition was performed in duplicates (technical replicates) and with at least three different donors (biological replicates). Test tubes were then incubated horizontally at 50 rpms, 37 °C, for 24 h. To assess the hemolytic potential of peptides, 10^7 RBCs were incubated with the relevant peptide at the indicated final concentration in a total volume of 150 µL, for 1 h at 37 °C, in a 96-well PCR plate. After incubation, samples were centrifuged (2000× g for 3 min) and 100 µL of supernatant was transferred to a fresh 96-well plate to measure hemoglobin absorbance at 414 nm. Hemolysis was defined as the absorbance of the sample relative to the absorbance of the full lysis control sample (RBCs incubated with pure water), following subtraction of the absorbance of the vehicle control (RBCs incubated with media or buffer only).

Data set [1] can be described thus: Membrane permeabilization by candidalysin, tethered bilayer lipid membranes (conductance). As to conditions: membranes without receptors, candidalysin 5, 10, 20 µM, 37 °C. As to the method:
(§1) Figure 5 The purinergic receptor antagonist pyridoxal-phosphate-6-azophenyl-2′,4′-disulfonic acid (PPADS) protects from candidalysin-induced hemolysis via a purinergic receptor-independent mechanism. (a) Purified RBCs were incubated with candidalysin (16 µM) and increasing concentrations of PPADS, for 1 h at 37 °C. Hemolysis was quantified by measuring the absorbance of sample’s supernatant at 414 nm, and plotted relative to the full lysis control sample (RBCs incubated with pure water and the same amount of PPADS), following subtraction of the relative vehicle control (containing the same amount of PPADS). Each data point on the graph represents a different donor (average of 2 technical replicates). […] Permeabilization was measured as kinetic changes in conductance of tethered lipid membranes.
Tethered bilayer lipid membranes with 10% tethering lipids and 90% spacer lipids (T10 slides) were formed using the solvent exchange technique according to the manufacturer’s instructions (SDx Tethered Membranes Pty Ltd., Sydney, Australia). […] After rinsing 3× with 100 µL buffer, the conductance and capacitance of the membranes were measured for 20 min before injection of different concentrations of PPADS to the final concentrations in the individual channels as shown. […] Signals were measured using the tethaPod (SDx Tethered Membranes Pty Ltd., Sydney, Australia).

The subject of data set [2] is candidalysin-induced hemolysis of RBCs. The data set can be described thus: Protection of RBCs from candidalysin-induced lysis by purinergic receptor antagonist. The class given is cell-based, human. To be noted: candidalysin 16 µM, increasing concentrations of PPADS, 1 h, 37 °C. As to the method: as §1, with “PPADS).” for “PPADS). Each data point on the graph represents a different donor (average of 2 technical replicates).”, “membranes. […]” for “membranes.”
To assess the hemolytic potential of C. albicans strains, RBCs and fungal cells were mixed in a 1:1 ratio (5 × 10^7 each, in a final volume of 600 µL) in a 2 mL plastic test tube (screw cap). […] After incubation, samples were centrifuged (2000× g for 3 min) and 100 µL of supernatant was transferred to a fresh 96-well plate to measure hemoglobin absorbance at 414 nm. Hemolysis was defined as the absorbance of the sample relative to the absorbance of the full lysis control sample (RBCs incubated with pure water), following subtraction of the absorbance of the vehicle control (RBCs incubated with media or buffer only).

A further data set has as its system epithelial cells. As to conditions: cited from earlier work. The text has this:
Candidalysin is generated from the longer polyprotein Ece1, which is processed by the Golgi-located Kex2 protease into eight peptides with C-terminal lysine–arginine (KR) residues. It was subsequently shown that a second processing event occurs by another Golgi-located protease, Kex1 [5, 11] which produces mature candidalysin by removing the C-terminal arginine from P3 [5, 11]. Peptides deriving from a Kex2-only processing are secreted, albeit at lower levels than mature candidalysin [5, 11].

As to `CC[C@H](C)[C@H](NC(=O)[C@H](CC(C)C)NC(=O)[C@H](CCC(N)=O)NC(=O)[C@@H]1CCCN1C(=O)[C@H](CC(C)C)NC(=O)[C@H](CCCNC(=N)N)NC(=O)[C@H](CCC(N)=O)NC(=O)[C@H](CC(C)C)NC(=O)[C@H](CC(C)C)NC(=O)[C@H](CCC(=O)O)NC(=O)[C@H](CC(=O)O)NC(=O)[C@H](CC(C)C)NC(=O)[C@H](Cc1ccccc1)NC(=O)[C@H](CC(=O)O)NC(=O)[C@H](CCC(=O)O)NC(=O)[C@H](CC(C)C)NC(=O)CNC(=O)[C@@H](N)CC(=O)O)C(=O)N[C@H](C(=O)O)[C@@H](C)O` [P7a], the “hemolysis by the P7 derivative alone” value in the data set on red blood cells (RBCs) (1 h) is “low-level cytolytic activity”.
`Cc1nc(N=Nc2ccc(S(=O)(=O)O)cc2S(=O)(=O)O)c(COP(=O)(O)O)c(C=O)c1O` [PPADS, pyridoxal-phosphate-6-azophenyl-2′,4′-disulfonic acid]: the “effect on permeabilization of artificial membranes by candidalysin” value in data set [1] is given as “able to inhibit permeabilization”. Moreover, the “effect on candidalysin-induced hemolysis” value in data set [2] is “reduced”.
Regarding `CC[C@H](C)[C@H](NC(=O)[C@H](CC(C)C)NC(=O)[C@H](CCC(N)=O)NC(=O)[C@@H]1CCCN1C(=O)[C@H](CC(C)C)NC(=O)[C@H](CCCNC(=N)N)NC(=O)[C@H](CCC(N)=O)NC(=O)[C@H](CC(C)C)NC(=O)[C@H](CC(C)C)NC(=O)[C@H](CCC(=O)O)NC(=O)[C@H](CC(=O)O)NC(=O)[C@H](CC(C)C)NC(=O)[C@H](Cc1ccccc1)NC(=O)[C@H](CC(=O)O)NC(=O)[C@H](CCC(=O)O)NC(=O)[C@H](CC(C)C)NC(=O)CNC(=O)[C@@H](N)CC(=O)O)C(=O)N[C@H](C(=O)N[C@@H](CCCNC(=N)N)C(=O)N[C@@H](CO)C(=O)N[C@@H](C)C(=O)N[C@@H](CCC(=O)O)C(=O)N[C@@H](CO)C(=O)N[C@@H](C)C(=O)N[C@@H](CC(C)C)C(=O)N[C@@H](CCCCN)C(=O)N[C@@H](CC(=O)O)C(=O)N[C@@H](CO)C(=O)N[C@@H](CCC(N)=O)C(=O)N1CCC[C@H]1C(=O)N[C@H](C(=O)N[C@@H](CCCCN)C(=O)O)C(C)C)[C@@H](C)O` [P7K], in the data set on red blood cells (RBCs) (1 h), the “hemolysis by the P7 derivative alone” value was “no effect”.
On to candidalysin, for which, in the data set with epithelial cells, the “cytolytic activity against epithelial cells” value is listed as “have cytolytic activity”. Further, the “reduction of hemolytic potential in the presence of EDTA” value with red blood cells (RBCs) (100 mM EDTA, peptide 9 µM (Proteogenix), 1 h) was determined as 4.2 fold. Also, in the data set on red blood cells (RBCs) (all tested concentrations (1–8 µM), time course), the “hemolytic activity compared with P3” value was “clearly less hemolytic than P3”. Moreover, in the data set with red blood cells (RBCs) (pH 5 to 8, buffered HBSS, peptide 9 µM, 1 h), the “effect of pH on lysis efficiency” value is “Only a minimal difference”. In the data set with red blood cells (RBCs) (peptide 9 µM, EDTA then MgCl2 up to 100 mM, 1 h), the “effect of adding excess Mg2+ ions (MgCl2) to cells pre-treated with EDTA on cytotoxicity” value is given as “restored the cytotoxicity”. Moreover, in the data set on red blood cells (RBCs) (time course, 5 min incubation, range 1–8 µM, mean of 4 donors), the “peptide concentration at and above which almost full RBC lysis was observed at the earliest time point” value was at least 4 µM.
